Data published in US10245244B2, “Pharmaceutical formulations for the treatment of pulmonary arterial hypertension” (HEART BIOTECH PHARMA LIMITED, priority 2014, dated 2019).

How the values were obtained:
[1] = test system: pulmonary arteries; experiment: U46619 contractile responses of pulmonary arteries; conditions: control mice (normoxic), FIG. 9a
[2] = test system: aorta; experiment: U46619 contractile responses of aorta; conditions: control mice (normoxic), FIG. 9a

CCCCC[C@H](O)/C=C/[C@@H]1[C@@H](C/C=C\CCCC(=O)O)[C@H]2CO[C@@H]1C2 [U46619, 9,11-Dideoxy-9α,11α-methanoepoxy prostaglandin F2α]
contraction of the pulmonary artery [1]: less contraction
contraction of the aorta [2]: significant contraction
